From ChEMBL document CHEMBL4507281, “Data for DCP probe BI-4394” (2021)

Assays:
[1] = molecular target: Mitotic checkpoint serine/threonine-protein kinase BUB1 (Homo sapiens) (UniProt O43683); settings: Compound concentration 100.0 nM
[2] = molecular target: D(3) dopamine receptor (Homo sapiens) (UniProt P35462); settings: Compound concentration 10.0 uM
[3] = test system: Proto-oncogene tyrosine-protein kinase receptor Ret (Homo sapiens), P07949 [M918T]; settings: Compound concentration 100.0 nM
[4] = molecular target: Serine/threonine-protein kinase 36 (Homo sapiens) (UniProt Q9NRP7); settings: Compound concentration 100.0 nM
[5] = molecular target: Serine/threonine-protein kinase STK11 (Homo sapiens) (UniProt Q15831); settings: Compound concentration 100.0 nM
[6] = molecular target: Tyrosine-protein kinase Yes (Homo sapiens) (UniProt P07947); settings: Compound concentration 100.0 nM
[7] = molecular target: Tyrosine-protein kinase receptor UFO (Homo sapiens) (UniProt P30530); settings: Compound concentration 100.0 nM
[8] = molecular target: Cyclin-dependent kinase-like 3 (Homo sapiens) (UniProt Q8IVW4); settings: Compound concentration 100.0 nM
[9] = molecular target: Phosphatidylinositol 3-kinase catalytic subunit type 3 (Homo sapiens) (UniProt Q8NEB9); settings: Compound concentration 100.0 nM
[10] = molecular target: G protein-coupled receptor kinase 4 (Homo sapiens) (UniProt P32298); settings: Compound concentration 100.0 nM
[11] = molecular target: Activin receptor type-1-like (Homo sapiens) (UniProt P37023); settings: Compound concentration 100.0 nM
[12] = molecular target: Ribosomal protein S6 kinase alpha-1 (Homo sapiens) (UniProt Q15418); settings: Compound concentration 100.0 nM
[13] = molecular target: Serine/threonine-protein kinase WNK3 (Homo sapiens) (UniProt Q9BYP7); settings: Compound concentration 100.0 nM
[14] = molecular target: Calcium/calmodulin-dependent protein kinase type 1B (Homo sapiens) (UniProt Q6P2M8); settings: Compound concentration 100.0 nM
[15] = molecular target: Tyrosine-protein kinase CSK (Homo sapiens) (UniProt P41240); settings: Compound concentration 100.0 nM
[16] = test system: Epidermal growth factor receptor (Homo sapiens), P00533 [G719C]; settings: Compound concentration 100.0 nM
[17] = test system: Epidermal growth factor receptor (Homo sapiens), P00533 [L858R,T790M]; settings: Compound concentration 100.0 nM
[18] = molecular target: Serine/threonine-protein kinase MARK1 (Homo sapiens) (UniProt Q9P0L2); settings: Compound concentration 100.0 nM
[19] = molecular target: Dual specificity tyrosine-phosphorylation-regulated kinase 1A (Homo sapiens) (UniProt Q13627); settings: Compound concentration 100.0 nM
[20] = molecular target: Atypical kinase COQ8A, mitochondrial (Homo sapiens) (UniProt Q8NI60); settings: Compound concentration 100.0 nM
[21] = test system: Epidermal growth factor receptor (Homo sapiens), P00533 [UNDEFINED MUTATION]; settings: Compound concentration 100.0 nM
[22] = molecular target: Serine/threonine-protein kinase PAK 2 (Homo sapiens) (UniProt Q13177); settings: Compound concentration 100.0 nM
[23] = molecular target: Delta-type opioid receptor (Homo sapiens) (UniProt P41143); settings: Compound concentration 10.0 uM
[24] = molecular target: Serine/threonine-protein kinase pim-2 (Homo sapiens) (UniProt Q9P1W9); settings: Compound concentration 100.0 nM
[25] = molecular target: Sigma non-opioid intracellular receptor 1 (Homo sapiens) (UniProt Q99720); settings: Compound concentration 10.0 uM
[26] = molecular target: Mitogen-activated protein kinase kinase kinase 6 (Homo sapiens) (UniProt O95382); settings: Compound concentration 100.0 nM
[27] = molecular target: Serine/threonine-protein kinase PAK 6 (Homo sapiens) (UniProt Q9NQU5); settings: Compound concentration 100.0 nM
[28] = molecular target: Mitogen-activated protein kinase kinase kinase 2 (Homo sapiens) (UniProt Q9Y2U5); settings: Compound concentration 100.0 nM
[29] = molecular target: Cyclin-dependent kinase 2 homolog (Plasmodium falciparum (isolate 3D7)) (UniProt P61075); settings: Compound concentration 100.0 nM
[30] = molecular target: Serine/threonine-protein kinase TAO1 (Homo sapiens) (UniProt Q7L7X3); settings: Compound concentration 100.0 nM
[31] = molecular target: Phosphorylase b kinase gamma catalytic chain, skeletal muscle/heart isoform (Homo sapiens) (UniProt Q16816); settings: Compound concentration 100.0 nM
[32] = molecular target: Casein kinase II subunit alpha' (Homo sapiens) (UniProt P19784); settings: Compound concentration 100.0 nM
[33] = molecular target: Focal adhesion kinase 1 (Homo sapiens) (UniProt Q05397); settings: Compound concentration 100.0 nM
[34] = molecular target: Serine/threonine-protein kinase TAO2 (Homo sapiens) (UniProt Q9UL54); settings: Compound concentration 100.0 nM
[35] = molecular target: Cyclin-dependent kinase 2 (Homo sapiens) (UniProt P24941); settings: Compound concentration 100.0 nM
[36] = molecular target: Serine/threonine-protein kinase ULK2 (Homo sapiens) (UniProt Q8IYT8); settings: Compound concentration 100.0 nM
[37] = molecular target: Myosin light chain kinase family member 4 (Homo sapiens) (UniProt Q86YV6); settings: Compound concentration 100.0 nM
[38] = molecular target: Ribosomal protein S6 kinase alpha-5 (Homo sapiens) (UniProt O75582); settings: Compound concentration 100.0 nM
[39] = molecular target: Tyrosine-protein kinase Lck (Homo sapiens) (UniProt P06239); settings: Compound concentration 100.0 nM
[40] = molecular target: TGF-beta receptor type-1 (Homo sapiens) (UniProt P36897); settings: Compound concentration 100.0 nM
[41] = test system: Mast/stem cell growth factor receptor Kit (Homo sapiens), P10721 [D816H]; settings: Compound concentration 100.0 nM
[42] = molecular target: Phosphatidylinositol 4-kinase beta (Homo sapiens) (UniProt Q9UBF8); settings: Compound concentration 100.0 nM
[43] = molecular target: Testis-specific serine/threonine-protein kinase 3 (Homo sapiens) (UniProt Q96PN8); settings: Compound concentration 100.0 nM
[44] = molecular target: Serine/threonine-protein kinase Nek4 (Homo sapiens) (UniProt P51957); settings: Compound concentration 100.0 nM
[45] = molecular target: Serine/threonine-protein kinase 38 (Homo sapiens) (UniProt Q15208); settings: Compound concentration 100.0 nM

Chain of Delta-type opioid receptor (Homo sapiens) (P41143 whole entry): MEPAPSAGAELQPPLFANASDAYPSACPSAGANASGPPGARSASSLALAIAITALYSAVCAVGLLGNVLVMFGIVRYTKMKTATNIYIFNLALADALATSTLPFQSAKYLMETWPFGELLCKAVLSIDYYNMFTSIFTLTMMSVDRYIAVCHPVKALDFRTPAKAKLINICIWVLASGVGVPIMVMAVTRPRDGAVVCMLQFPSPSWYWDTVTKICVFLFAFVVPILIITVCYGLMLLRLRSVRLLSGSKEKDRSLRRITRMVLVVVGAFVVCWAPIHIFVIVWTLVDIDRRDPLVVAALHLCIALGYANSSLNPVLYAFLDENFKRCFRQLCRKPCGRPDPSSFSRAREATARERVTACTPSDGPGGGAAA
Chain of Sigma non-opioid intracellular receptor 1 (Homo sapiens) (Q99720 whole entry): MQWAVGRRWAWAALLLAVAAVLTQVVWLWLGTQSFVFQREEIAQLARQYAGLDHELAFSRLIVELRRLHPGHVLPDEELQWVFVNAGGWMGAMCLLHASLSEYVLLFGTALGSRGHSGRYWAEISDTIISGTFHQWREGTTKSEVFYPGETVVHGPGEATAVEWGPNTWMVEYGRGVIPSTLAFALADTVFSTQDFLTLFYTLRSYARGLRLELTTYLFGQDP
Chain of Serine/threonine-protein kinase 36 (Homo sapiens) (Q9NRP7 whole entry): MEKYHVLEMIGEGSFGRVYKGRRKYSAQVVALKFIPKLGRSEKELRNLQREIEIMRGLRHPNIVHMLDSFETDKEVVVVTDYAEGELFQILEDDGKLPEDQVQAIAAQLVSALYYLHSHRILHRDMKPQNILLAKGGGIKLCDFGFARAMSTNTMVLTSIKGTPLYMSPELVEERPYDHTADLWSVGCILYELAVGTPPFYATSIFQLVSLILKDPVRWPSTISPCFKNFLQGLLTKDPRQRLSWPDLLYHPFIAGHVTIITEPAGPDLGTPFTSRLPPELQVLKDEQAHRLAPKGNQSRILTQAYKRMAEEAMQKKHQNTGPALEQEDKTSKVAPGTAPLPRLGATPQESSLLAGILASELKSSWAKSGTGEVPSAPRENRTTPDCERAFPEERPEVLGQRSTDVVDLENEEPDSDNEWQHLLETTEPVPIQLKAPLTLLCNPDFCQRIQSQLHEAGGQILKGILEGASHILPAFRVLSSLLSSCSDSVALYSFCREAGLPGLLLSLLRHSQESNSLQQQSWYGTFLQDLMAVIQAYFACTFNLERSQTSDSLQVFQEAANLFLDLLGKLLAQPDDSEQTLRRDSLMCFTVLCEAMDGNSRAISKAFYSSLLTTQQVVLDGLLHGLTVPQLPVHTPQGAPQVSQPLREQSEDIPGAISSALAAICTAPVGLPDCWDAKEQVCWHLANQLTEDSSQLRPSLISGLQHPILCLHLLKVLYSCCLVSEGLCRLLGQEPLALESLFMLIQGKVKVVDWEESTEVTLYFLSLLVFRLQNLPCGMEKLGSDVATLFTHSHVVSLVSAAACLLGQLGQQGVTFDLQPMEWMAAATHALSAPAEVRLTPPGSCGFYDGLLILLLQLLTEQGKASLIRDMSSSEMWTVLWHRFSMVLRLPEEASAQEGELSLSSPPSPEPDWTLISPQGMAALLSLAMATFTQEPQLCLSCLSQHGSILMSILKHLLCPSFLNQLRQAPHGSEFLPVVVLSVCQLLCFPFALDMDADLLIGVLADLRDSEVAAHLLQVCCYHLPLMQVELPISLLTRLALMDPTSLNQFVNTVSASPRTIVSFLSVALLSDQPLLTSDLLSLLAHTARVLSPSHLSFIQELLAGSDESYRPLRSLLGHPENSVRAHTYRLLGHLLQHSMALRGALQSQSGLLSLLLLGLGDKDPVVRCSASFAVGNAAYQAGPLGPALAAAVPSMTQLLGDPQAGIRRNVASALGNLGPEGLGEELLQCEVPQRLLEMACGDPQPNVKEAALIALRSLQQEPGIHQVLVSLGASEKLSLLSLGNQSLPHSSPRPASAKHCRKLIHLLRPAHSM
Chain of Tyrosine-protein kinase CSK (Homo sapiens) (P41240 2-450 limits assumed): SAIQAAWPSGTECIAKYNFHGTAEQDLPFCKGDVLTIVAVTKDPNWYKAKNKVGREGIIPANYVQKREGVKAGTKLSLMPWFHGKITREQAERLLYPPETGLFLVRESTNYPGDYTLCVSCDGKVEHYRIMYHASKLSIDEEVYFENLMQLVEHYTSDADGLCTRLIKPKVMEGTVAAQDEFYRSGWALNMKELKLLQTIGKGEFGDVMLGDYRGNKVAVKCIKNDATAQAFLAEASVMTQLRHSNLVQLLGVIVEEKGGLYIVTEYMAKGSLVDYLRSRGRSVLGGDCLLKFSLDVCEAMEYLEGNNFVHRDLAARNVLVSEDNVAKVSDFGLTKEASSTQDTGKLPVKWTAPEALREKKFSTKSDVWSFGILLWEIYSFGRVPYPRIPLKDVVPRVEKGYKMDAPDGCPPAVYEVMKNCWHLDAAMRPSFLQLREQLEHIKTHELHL
Chain of Activin receptor type-1-like (Homo sapiens) (P37023 whole entry): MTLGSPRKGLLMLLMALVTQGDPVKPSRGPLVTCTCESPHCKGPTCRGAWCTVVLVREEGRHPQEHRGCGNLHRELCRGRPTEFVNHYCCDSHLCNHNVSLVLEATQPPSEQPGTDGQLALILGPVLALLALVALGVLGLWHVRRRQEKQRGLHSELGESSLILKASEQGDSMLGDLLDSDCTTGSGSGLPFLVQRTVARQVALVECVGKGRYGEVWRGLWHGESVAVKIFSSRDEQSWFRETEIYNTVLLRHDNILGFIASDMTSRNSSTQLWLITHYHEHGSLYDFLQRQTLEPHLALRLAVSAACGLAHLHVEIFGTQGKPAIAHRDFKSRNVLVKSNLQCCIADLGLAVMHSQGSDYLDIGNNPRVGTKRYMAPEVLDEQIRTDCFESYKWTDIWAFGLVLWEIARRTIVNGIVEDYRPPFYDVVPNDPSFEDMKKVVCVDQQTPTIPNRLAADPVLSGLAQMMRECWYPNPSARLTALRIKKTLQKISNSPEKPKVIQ
Chain of Mitogen-activated protein kinase kinase kinase 2 (Homo sapiens) (Q9Y2U5 whole entry): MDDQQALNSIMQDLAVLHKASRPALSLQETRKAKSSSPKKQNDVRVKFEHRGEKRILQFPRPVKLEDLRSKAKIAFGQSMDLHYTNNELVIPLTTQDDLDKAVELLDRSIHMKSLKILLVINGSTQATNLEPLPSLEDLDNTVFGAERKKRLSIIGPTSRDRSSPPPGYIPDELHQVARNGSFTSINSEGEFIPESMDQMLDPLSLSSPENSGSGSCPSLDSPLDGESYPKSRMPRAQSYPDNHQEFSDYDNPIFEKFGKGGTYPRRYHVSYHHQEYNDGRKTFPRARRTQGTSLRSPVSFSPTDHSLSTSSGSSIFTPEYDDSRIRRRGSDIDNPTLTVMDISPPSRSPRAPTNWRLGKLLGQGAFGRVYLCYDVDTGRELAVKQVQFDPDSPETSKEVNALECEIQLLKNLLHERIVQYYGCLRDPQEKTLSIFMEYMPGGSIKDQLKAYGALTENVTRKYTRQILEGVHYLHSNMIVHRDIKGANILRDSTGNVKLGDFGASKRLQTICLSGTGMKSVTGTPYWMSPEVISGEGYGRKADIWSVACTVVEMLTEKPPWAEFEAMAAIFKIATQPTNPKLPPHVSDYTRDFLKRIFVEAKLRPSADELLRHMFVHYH
Chain of Serine/threonine-protein kinase STK11 (Homo sapiens) (Q15831 whole entry): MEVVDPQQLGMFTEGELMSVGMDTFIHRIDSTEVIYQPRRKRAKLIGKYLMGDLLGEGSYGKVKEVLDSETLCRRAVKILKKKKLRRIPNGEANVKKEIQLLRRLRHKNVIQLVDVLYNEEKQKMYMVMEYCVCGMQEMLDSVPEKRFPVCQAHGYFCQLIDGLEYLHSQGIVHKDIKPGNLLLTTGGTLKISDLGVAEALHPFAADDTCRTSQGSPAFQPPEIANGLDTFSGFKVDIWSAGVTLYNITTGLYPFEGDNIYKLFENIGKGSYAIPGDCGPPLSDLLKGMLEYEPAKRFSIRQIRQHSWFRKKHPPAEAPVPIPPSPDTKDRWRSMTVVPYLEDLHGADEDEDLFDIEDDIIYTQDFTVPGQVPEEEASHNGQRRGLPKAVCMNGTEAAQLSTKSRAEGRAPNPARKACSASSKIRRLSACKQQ
Chain of G protein-coupled receptor kinase 4 (Homo sapiens) (P32298 whole entry, looked up): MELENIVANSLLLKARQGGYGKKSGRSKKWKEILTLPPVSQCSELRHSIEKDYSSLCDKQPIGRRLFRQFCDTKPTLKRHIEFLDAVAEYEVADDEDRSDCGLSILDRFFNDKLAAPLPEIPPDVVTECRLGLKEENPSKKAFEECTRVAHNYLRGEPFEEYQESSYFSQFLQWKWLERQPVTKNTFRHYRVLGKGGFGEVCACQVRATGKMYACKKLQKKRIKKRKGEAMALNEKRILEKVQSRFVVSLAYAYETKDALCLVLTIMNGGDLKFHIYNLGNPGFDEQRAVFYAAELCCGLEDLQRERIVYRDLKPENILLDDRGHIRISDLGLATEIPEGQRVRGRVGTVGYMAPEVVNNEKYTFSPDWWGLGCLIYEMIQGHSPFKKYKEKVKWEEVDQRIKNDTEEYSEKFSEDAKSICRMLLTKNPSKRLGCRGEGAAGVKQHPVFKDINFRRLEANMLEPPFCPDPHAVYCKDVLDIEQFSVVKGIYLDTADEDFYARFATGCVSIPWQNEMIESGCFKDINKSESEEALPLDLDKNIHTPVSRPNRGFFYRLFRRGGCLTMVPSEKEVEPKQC
Chain of Serine/threonine-protein kinase PAK 2 (Homo sapiens) (Q13177 whole entry): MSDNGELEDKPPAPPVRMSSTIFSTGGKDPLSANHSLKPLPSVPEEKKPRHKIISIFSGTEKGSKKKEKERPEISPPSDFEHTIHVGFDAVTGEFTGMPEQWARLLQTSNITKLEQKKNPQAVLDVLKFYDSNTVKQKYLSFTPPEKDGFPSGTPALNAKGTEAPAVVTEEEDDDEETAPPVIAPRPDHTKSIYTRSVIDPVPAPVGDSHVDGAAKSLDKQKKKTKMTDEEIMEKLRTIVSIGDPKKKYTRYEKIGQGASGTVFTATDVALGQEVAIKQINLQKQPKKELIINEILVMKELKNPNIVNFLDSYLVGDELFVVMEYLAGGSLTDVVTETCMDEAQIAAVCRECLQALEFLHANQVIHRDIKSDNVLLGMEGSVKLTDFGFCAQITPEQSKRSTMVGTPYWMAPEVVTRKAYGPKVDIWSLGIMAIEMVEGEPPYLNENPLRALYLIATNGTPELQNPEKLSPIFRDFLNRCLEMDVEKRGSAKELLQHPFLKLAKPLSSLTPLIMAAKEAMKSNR

Cn1nc(C(=O)NCc2ccc(C(=O)O)cc2)cc1-c1ccc2[nH]ccc2c1 [BI 4395]
residual activity [1]: 83% | inhibition [2]: 1.67% | residual activity [3]: 49% | residual activity [4]: 93% | residual activity [5]: 100% | residual activity [6]: 84% | residual activity [7]: 89% | residual activity [8]: 100% | residual activity [9]: 93% | residual activity [10]: 96% | residual activity [11]: 97% | residual activity [12]: 95% | residual activity [13]: 67% | residual activity [14]: 100% | residual activity [15]: 94% | residual activity [16]: 76% | residual activity [17]: 92% | residual activity [18]: 100% | residual activity [19]: 98% | residual activity [20]: 100% | residual activity [21]: 94% | residual activity [22]: 23% | inhibition [23]: 0.8% | residual activity [24]: 81% | inhibition [25]: 1.99% | residual activity [26]: 88% | residual activity [27]: 96% | residual activity [28]: 75% | residual activity [29]: 74% | residual activity [30]: 91% | residual activity [31]: 100% | residual activity [32]: 100% | residual activity [33]: 85% | residual activity [34]: 82% | residual activity [35]: 91% | residual activity [36]: 98% | residual activity [37]: 76% | residual activity [38]: 100% | residual activity [39]: 75% | residual activity [40]: 97% | residual activity [41]: 81% | residual activity [42]: 70% | residual activity [43]: 97% | residual activity [44]: 84% | residual activity [45]: 92%

CCOC(=O)c1cc2cc(-c3cc(C(=O)NCc4ccc(C(=O)O)cc4)nn3C)ccc2[nH]1 [BI 4394]
residual activity [1]: 100% | inhibition [2]: 2.74% | residual activity [3]: 100% | residual activity [4]: 97% | residual activity [5]: 100% | residual activity [6]: 100% | residual activity [7]: 89% | residual activity [8]: 0% | residual activity [9]: 80% | residual activity [10]: 100% | residual activity [11]: 68% | residual activity [12]: 84% | residual activity [13]: 96% | residual activity [14]: 97% | residual activity [15]: 74% | residual activity [16]: 100% | residual activity [17]: 100% | residual activity [18]: 76% | residual activity [19]: 90% | residual activity [20]: 100% | residual activity [21]: 100% | residual activity [22]: 100% | inhibition [23]: -9.42% | residual activity [24]: 96% | inhibition [25]: 14.6% | residual activity [26]: 79% | residual activity [27]: 99% | residual activity [28]: 100% | residual activity [29]: 65% | residual activity [30]: 90% | residual activity [31]: 100% | residual activity [32]: 87% | residual activity [33]: 94% | residual activity [34]: 90% | residual activity [35]: 90% | residual activity [36]: 78% | residual activity [37]: 100% | residual activity [38]: 100% | residual activity [39]: 94% | residual activity [40]: 100% | residual activity [41]: 75% | residual activity [42]: 79% | residual activity [43]: 91% | residual activity [44]: 81% | residual activity [45]: 95%
